Values after ≈ are worked out from the molar mass of the structure shown.
Columns and labels:
[1] = system: S. aureus ATCC 12600-U; experiment: Disc diffusion assay (DDA); type: cell-based, Staphylococcus aureus; details: zone diameter, 200 μg per disc
Procedure: (§1) The staphylococci and enterococci were cultured and maintained on Mueller-Hinton Medium (agar and broth) at pH 7.2; they were incubated aerobically at 37° C. for 24 hours.
(§2) A sterile paper disc was impregnated with a sample of the test compound and a minimum of 30 minutes allowed for the solvents to evaporate as far as possible. The disc was then placed on an agar plate onto which the test micro-organism had been inoculated. The plate was then incubated under the conditions described above, following which it was examined visually for signs of bacterial growth. If the test compound had antimicrobial activity, a circular zone of no growth would be obtained around the disc. The diameter of this zone of “inhibition” was measured using a ProtoCOL™ automated zone sizer (Synbiosis, Cambridge, UK). In general, a greater diameter and/or area of the zone of inhibition indicates a greater antimicrobial activity in the relevant test compound, although other factors such as test compound mobility through the agar gel may also influence the result.
(§3) The area of the zone of inhibition was calculated from the measured zone diameter (D) using the formula π(D/2)^2.

[2] = system: S. aureus ATCC 12604; experiment: Disc diffusion assay (DDA); type: cell-based, Staphylococcus aureus; details: zone diameter, 200 μg per disc
Procedure: as §1, §2, §3

[3] = system: S. aureus CPHL VISA Mu3; experiment: Disc diffusion assay (DDA); type: cell-based, Staphylococcus aureus; details: zone diameter, 200 μg per disc
Procedure: as §1, §2, §3

[4] = system: P. acnes PRP-002; experiment: MIC assay; type: cell-based, Propionibacterium acnes; details: Cutibacterium acnes, PRP002; P. acnes PRP-002 (resistance Tet/MLS)
Procedure: (§4) The Propionibacterium spp organisms were cultured and maintained on Wilkins-Chalgren Anaerobe Medium (agar and broth) at pH 6.0; cultures were incubated anaerobically at 37° C. for 72 hours.
(§5) This is a standard international method for quantitatively assessing the antimicrobial activity of a compound in a liquid medium. The method used a 96-well microtitre plate, capable of holding about 200 μl of liquid per well. […] The culture media were as described above for the relevant test organisms.
(§6) The wells were inoculated with a liquid suspension of freshly grown micro-organism and incubated under the conditions described above. After incubation, the microtitre plate was examined visually (with the aid of a light box) for cell pellets in and/or opaque wells, which would indicate microbial growth. The MIC value was recorded as the lowest concentration of test compound required to inhibit microbial growth, ie, the lowest concentration for which the liquid in the well remained clear.
(§7) The assays were conducted in duplicate and included both negative (culture medium only) and positive (culture medium, diluting solvent and inoculum) controls.

[5] = system: P. acnes PRP-004; experiment: MIC assay; type: cell-based, Propionibacterium acnes; details: Cutibacterium acnes, PRP004; P. acnes PRP-004 (resistance Tet)
Procedure: as §4, §5, §6, §7

[6] = system: P. acnes PRP-017; experiment: MIC assay; type: cell-based, Propionibacterium acnes; details: Cutibacterium acnes, PRP017; P. acnes PRP-017 (resistance MLS)
Procedure: as §4, §5, §6, §7

[7] = system: P. acnes PRP-023; experiment: MIC assay; type: cell-based, Propionibacterium acnes; details: Cutibacterium acnes, PRP023; P. acnes PRP-023 (resistance MLSK)
Procedure: as §4, §5, §6, §7

[8] = system: P. acnes PRP-026; experiment: MIC assay; type: cell-based, Propionibacterium acnes; details: Cutibacterium acnes, PRP026; P. acnes PRP-026 (resistance MLS)
Procedure: as §4, §5, §6, §7

[9] = system: P. acnes PRP-046; experiment: MIC assay; type: cell-based, Propionibacterium acnes; details: Cutibacterium acnes, PRP046; P. acnes PRP-046 (resistance None)
Procedure: as §4, §5, §6, §7

[10] = system: P. acnes PRP-059; experiment: MIC assay; type: cell-based, Propionibacterium acnes; details: Cutibacterium acnes, PRP059; P. acnes PRP-059 (resistance MLS)
Procedure: as §4, §5, §6, §7

[11] = system: P. acnes PRP-002; experiment: Disc diffusion assay (DDA); type: cell-based, Propionibacterium acnes; details: zone diameter, 200 μg per disc
Procedure: as §4, §2, §3

[12] = system: P. acnes PRP-003; experiment: Disc diffusion assay (DDA); type: cell-based, Propionibacterium acnes; details: zone diameter, 200 μg per disc
Procedure: as §4, §2, §3

[13] = system: P. acnes PRP-004; experiment: Disc diffusion assay (DDA); type: cell-based, Propionibacterium acnes; details: zone diameter, 200 μg per disc
Procedure: as §4, §2, §3

[14] = system: P. acnes PRP-007; experiment: Disc diffusion assay (DDA); type: cell-based, Propionibacterium acnes; details: zone diameter, 200 μg per disc
Procedure: as §4, §2, §3

[15] = system: P. acnes PRP-008; experiment: Disc diffusion assay (DDA); type: cell-based, Propionibacterium acnes; details: zone diameter, 200 μg per disc
Procedure: as §4, §2, §3

[16] = system: P. acnes PRP-017; experiment: Disc diffusion assay (DDA); type: cell-based, Propionibacterium acnes; details: zone diameter, 200 μg per disc
Procedure: as §4, §2, §3

[17] = system: P. acnes PRP-023; experiment: Disc diffusion assay (DDA); type: cell-based, Propionibacterium acnes; details: zone diameter, 200 μg per disc
Procedure: as §4, §2, §3

[18] = system: P. acnes PRP-026; experiment: Disc diffusion assay (DDA); type: cell-based, Propionibacterium acnes; details: zone diameter, 200 μg per disc
Procedure: as §4, §2, §3

[19] = system: P. acnes PRP-046; experiment: Disc diffusion assay (DDA); type: cell-based, Propionibacterium acnes; details: zone diameter, 200 μg per disc
Procedure: as §4, §2, §3

[20] = system: P. acnes PRP-059; experiment: Disc diffusion assay (DDA); type: cell-based, Propionibacterium acnes; details: zone diameter, 200 μg per disc
Procedure: as §4, §2, §3

[21] = system: P. acnes PRP-068; experiment: Disc diffusion assay (DDA); type: cell-based, Propionibacterium acnes; details: zone diameter, 200 μg per disc
Procedure: as §4, §2, §3

[22] = system: P. acnes PRP-101; experiment: Disc diffusion assay (DDA); type: cell-based, Propionibacterium acnes; details: zone diameter, 200 μg per disc
Procedure: as §4, §2, §3

[23] = system: P. acnes PRP-102; experiment: Disc diffusion assay (DDA); type: cell-based, Propionibacterium acnes; details: zone diameter, 200 μg per disc
Procedure: as §4, §2, §3

[24] = system: P. avidum ATCC 25577; experiment: Disc diffusion assay (DDA); type: cell-based; details: zone diameter, 200 μg per disc
Procedure: as §4, §2, §3

[25] = system: P. granulosum NCTC 11865; experiment: Disc diffusion assay (DDA); type: cell-based; details: zone diameter, 200 μg per disc
Procedure: as §4, §2, §3

[26] = system: P. granulosum PRP-005; experiment: Disc diffusion assay (DDA); type: cell-based; details: zone diameter, 200 μg per disc
Procedure: as §4, §2, §3

[27] = system: P. granulosum PRP-043; experiment: Disc diffusion assay (DDA); type: cell-based; details: zone diameter, 200 μg per disc
Procedure: as §4, §2, §3

[28] = system: P. granulosum PRP-044; experiment: Disc diffusion assay (DDA); type: cell-based; details: zone diameter, 200 μg per disc
Procedure: as §4, §2, §3

[29] = system: P. granulosum PRP-055; experiment: Disc diffusion assay (DDA); type: cell-based; details: zone diameter, 200 μg per disc
Procedure: as §4, §2, §3

| SMILES | DDA [1] [mm] | DDA [2] [mm] | DDA [3] [mm] | MIC [4] [µg/mL] | MIC [5] [µg/mL] | MIC [6] [µg/mL] | MIC [7] [µg/mL] | MIC [8] [µg/mL] | MIC [9] [µg/mL] | MIC [10] [µg/mL] | DDA [11] | DDA [12] | DDA [13] | DDA [14] | DDA [15] | DDA [16] | DDA [17] | DDA [18] | DDA [19] | DDA [20] | also measured |
| --- | --- | --- | --- | --- | --- | --- | --- | --- | --- | --- | --- | --- | --- | --- | --- | --- | --- | --- | --- | --- | --- |
| O=C(OOC(=O)c1ccccc1)c1ccccc1 [benzoyl peroxide] | 12.20 | 12.52 | 10.90 | 15.6 (≈ 64.4 µM) | 7.8 (≈ 32.2 µM) | 31.2 (≈ 129 µM) | 31.2 (≈ 129 µM) | 15.6 (≈ 64.4 µM) | 31.2 (≈ 129 µM) | 62.5 (≈ 258 µM) | 25.69 (±0.66) mm | 25.69 (±0.66) mm | 31.17 (±1.02) mm | 23.88 (±1.42) mm | 27.80 (±1.29) mm | 23.28 (±0.48) mm | 24.11 (±0.65) mm | 26.52 (±0.65) mm | 24.36 (±0.36) mm | 23.49 (±0.48) mm | DDA [21]: 28.79 (±0.95) mm; DDA [22]: 25.73 (±1.99) mm; DDA [23]: 29.62 (±1.12) mm; DDA [24]: 25.83 (±0.95) mm; DDA [25]: 24.19 (±0.94) mm; DDA [26]: 22.95 (±0.64) mm; DDA [27]: 22.48 (±1.19) mm; DDA [28]: 29.31 (±0.54) mm; DDA [29]: 21.51 (±0.47) mm |
| CC(C)(C)c1cc(O)ccc1O [TBHQ, t-butyl hydroquinone] | 51.24 | 55.03 | 50.73 | 3.9 (≈ 23.5 µM) | 1.95 (≈ 11.7 µM) | 3.9 (≈ 23.5 µM) | 3.9 (≈ 23.5 µM) | 3.9 (≈ 23.5 µM) | 1.95 (≈ 11.7 µM) | 3.9 (≈ 23.5 µM) | 28.42 (±0.95) mm | 38.01 (±1.02) mm | 30.32 (±1.97) mm | 13.43 (±2.49) mm | 14.47 (±0.90) mm | 18.40 (±1.08) mm | 23.90 (±0.00) mm | 8.18 (±0.72) mm | 17.46 (±1.58) mm | 17.56 (±0.72) mm | DDA [21]: 20.89 (±1.08) mm; DDA [22]: 0.0 (±0.00) mm; DDA [23]: 23.80 (±0.10) mm; DDA [24]: 9.16 (±0.48) mm; DDA [25]: 11.00 (±0.00) mm; DDA [26]: 0.00 (±0.00) mm; DDA [27]: 10.56 (±0.48) mm; DDA [28]: 10.70 (±0.65) mm; DDA [29]: 13.07 (±0.78) mm |

From patent publication US20080262097A1, “Formulations” (priority 2005, published 2008)
